Data set [1] addresses wild type TEM-1 β-lactamase (Escherichia coli, UniProt P62593). As to the kind of experiment: Spectrophotometric nitrocefin hydrolysis inhibition assay, TEM-1. Format: biochemical. As to conditions: for IC50: inhibition values are IC50 unless noted. The protocol:
(§1) The inhibition of beta lactamase was determined spectrophotometrically. Beta lactamase activity was followed by measuring the change in absorbance upon hydrolysis of nitrocefin, [3-(2,4-dinitrostyryl)-(6R,7R)-7-(2-thienylacetamido)-ceph-3-em-4-carboxylic acid, E-isomer], (Calbiochem, San Diego, Calif., USA) at 486 nm. Inhibition constants (Ki) for the inhibitors are obtained at the desired temperature and solvent conditions by measuring the rate of substrate hydrolysis at increasing amounts of inhibitors. All inhibition assays were performed at 25° C. in 50 mM sodium phosphate, 5% DMSO, pH 7.0, keeping the enzyme concentration at 5 nM and the substrate concentration at 167 μM. Reaction was started by addition of substrate to the corresponding mixture of enzyme and inhibitor preincubated for 10 minutes.

For data set [2], the target named is TEM-1 β-lactamase, Drug Resistant Mutants and AmpC β-lactamase. The experiment in a line: Average Ki over TEM-1, drug resistant mutants and AmpC. Format: biochemical. To be noted: mean over TEM-1, TEM-12, TEM-17, TEM-30, TEM-40, AmpC. The procedure: as §1
The next data set deals with AmpC β-lactamase (Escherichia coli, UniProt P00811). The experiment in a line: Spectrophotometric nitrocefin hydrolysis inhibition assay, AmpC.
AmpC β-lactamase, sequence (P00811 20-377): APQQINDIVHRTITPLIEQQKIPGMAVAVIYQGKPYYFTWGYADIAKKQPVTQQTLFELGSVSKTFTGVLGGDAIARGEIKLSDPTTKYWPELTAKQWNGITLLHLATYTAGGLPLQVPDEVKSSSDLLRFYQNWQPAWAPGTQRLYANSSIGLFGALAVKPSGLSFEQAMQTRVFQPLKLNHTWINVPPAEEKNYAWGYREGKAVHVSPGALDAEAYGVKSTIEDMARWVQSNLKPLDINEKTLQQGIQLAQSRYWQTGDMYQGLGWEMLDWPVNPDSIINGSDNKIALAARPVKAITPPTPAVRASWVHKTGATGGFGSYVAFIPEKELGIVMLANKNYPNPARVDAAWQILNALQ
For the next data set, the system named is AmpC. To be noted: read-out: Inhibitory Potency (IC50) AmpC; cited from earlier work.
The target in a further data set is IMP-1 beta-lactamase (Serratia marcescens, UniProt P52699). The experiment in a line: Spectrophotometric nitrocefin hydrolysis inhibition assay, IMP-1.
IMP-1 beta-lactamase, sequence (P52699 19-246, looked up): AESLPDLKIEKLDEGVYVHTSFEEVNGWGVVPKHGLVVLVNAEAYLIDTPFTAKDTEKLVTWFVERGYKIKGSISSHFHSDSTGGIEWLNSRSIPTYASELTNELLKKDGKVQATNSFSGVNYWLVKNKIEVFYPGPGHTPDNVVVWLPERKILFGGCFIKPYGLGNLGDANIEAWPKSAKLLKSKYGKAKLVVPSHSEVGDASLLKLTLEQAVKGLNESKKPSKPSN
A short description of another data set: Solubility. Format: physicochemical.
Data set [3] can be described thus: Microsomal stability (T1/2). Format: in vitro ADME. To be noted: microsomes.
Another data set deals with HSA (Homo sapiens, UniProt P02768). As to the kind of experiment: HSA binding (Kd).
HSA, sequence (P02768 25-609): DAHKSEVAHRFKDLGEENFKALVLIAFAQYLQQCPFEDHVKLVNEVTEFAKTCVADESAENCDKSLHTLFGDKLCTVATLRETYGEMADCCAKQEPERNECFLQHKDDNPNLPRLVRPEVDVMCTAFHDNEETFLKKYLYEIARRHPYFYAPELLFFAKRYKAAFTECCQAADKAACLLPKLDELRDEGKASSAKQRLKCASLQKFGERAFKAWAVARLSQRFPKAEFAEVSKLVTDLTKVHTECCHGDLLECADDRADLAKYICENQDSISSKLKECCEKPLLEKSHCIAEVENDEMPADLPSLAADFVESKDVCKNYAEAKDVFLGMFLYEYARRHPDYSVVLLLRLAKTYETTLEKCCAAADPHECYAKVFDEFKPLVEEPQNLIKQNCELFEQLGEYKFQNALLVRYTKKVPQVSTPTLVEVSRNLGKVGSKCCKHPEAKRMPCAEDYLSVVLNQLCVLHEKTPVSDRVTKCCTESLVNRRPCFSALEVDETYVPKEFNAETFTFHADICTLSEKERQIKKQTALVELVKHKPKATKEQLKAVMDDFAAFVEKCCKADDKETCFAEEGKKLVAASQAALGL
For another data set, the target named is TEM-1 (Escherichia coli, UniProt P62593). As to the kind of experiment: TEM-1 binding enthalpy (ΔH).
TEM-1, sequence (P62593 24-286 limits assumed): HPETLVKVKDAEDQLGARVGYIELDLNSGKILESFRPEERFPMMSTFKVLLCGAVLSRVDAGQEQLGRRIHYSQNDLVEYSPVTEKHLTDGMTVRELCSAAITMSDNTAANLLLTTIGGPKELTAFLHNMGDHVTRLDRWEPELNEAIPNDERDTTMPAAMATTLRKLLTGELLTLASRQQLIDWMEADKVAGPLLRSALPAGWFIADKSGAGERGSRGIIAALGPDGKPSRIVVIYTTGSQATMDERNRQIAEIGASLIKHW
Data set [4] deals with Methicillin-resistant (MRSA) Staphylococcus aureus. The experiment in a line: Oxacillin MIC in presence of compound, MRSA. Format: cell-based.
Data set [5] relates to Vancomycin-resistant (VRSA) Staphylococcus aureus. As to the kind of experiment: Oxacillin MIC in presence of compound, VRSA. Format: cell-based.
Setting [6] is: Oxacillin MIC with compound at 4 μg/mL.

SMILES strings stand for the structures. ≈ marks a conversion by molar mass, not a printed value. Where “and” joins values, the source holds several entries; their conditions need not be identical. Equal entries are not always repeated.

wild type TEM-1 β-lactamase, sequence (P62593 24-286 limits assumed): as above

`O=S(=O)(/C=C/c1cccc(Br)c1)Nc1cccc(-c2nnn(Cc3cccc(Cl)c3)n2)c1`: the “mode of inhibition of TEM-1 beta-lactamase” value in data set [1] (double reciprocal plot, FIG. 3) was “competitive inhibition”. In addition, the Ki (commonly a measure of affinity in units of concentration, obtained from inhibition or displacement) in data set [2] was determined as 362 nM; on AmpC β-lactamase, 182 nM.

For the compound `O=C(O)[C@H]1/C(=C/CO)O[C@@H]2CC(=O)N21` [Clavulanic Acid], the IC50 (usually the concentration that gives 50% inhibition) in the data set with AmpC is no less than 59 µM.

For `CC1(C)[C@H](C(=O)O)N2C(=O)C[C@H]2S1(=O)=O` [Sulbactam], in the data set with AmpC, the IC50 was no less than 3.8 µM.

Regarding `C[C@]1(Cn2ccnn2)[C@H](C(=O)O)N2C(=O)C[C@H]2S1(=O)=O` [Tazobactam], the IC50 in the data set with AmpC is […].

With `O=S(=O)(/C=C/c1cccc(Cl)c1)N(Cc1cccc(Cl)c1)c1cccc(Cl)c1` [ef-rs-03-075], the Ki in data set [1] (25° C., 50 mM sodium phosphate, 5% DMSO, pH 7.0, nitrocefin 167 μM, read-out: Ki TEM-1 (WT)) is 82 ± 12 nM; at IMP-1 beta-lactamase, 496 ± 57 nM.

As to `COc1ccc(NS(=O)(=O)/C=C/c2cccc(Cl)c2)cc1OCc1cccc(Cl)c1` [ef-rs-04-091], the solubility (commonly the concentration that dissolves in the medium under given conditions) in the data set “Solubility” was 19 µM (≈ 8.82 µg/mL). In data set [3], the half-life (as a rule, how long it takes for the measured level to halve) is 70 ± 8 min. Moreover, the Kd (as a rule, the free concentration of one partner at which half of the binding sites on the other are occupied at equilibrium, for simple one-to-one binding) at HSA was 4080 nM and 4260 nM. Moreover, at TEM-1, the “TEM-1 ΔH” value is on record as “+1.75 kcal/mol”. Also, the IC50 against AmpC β-lactamase is 671 ± 238 nM; against IMP-1 beta-lactamase, 347 ± 43 nM.

In the case of `COc1cccc(/C=C/S(=O)(=O)Nc2cccc(OCc3cccc(Cl)c3)c2)c1` [ef-rs-05-054], the concentration in solution in “Solubility” (solubility) was 6 µM (≈ 2.58 µg/mL). This compound also returned a half-life in data set [3] of 59 ± 6 min. Further, the Kd on HSA was 97.5 nM and 202 nM. Also, the “TEM-1 ΔH” value on TEM-1 is on record as “+2.32 kcal/mol”. Besides, the IC50 on AmpC β-lactamase came out at 555 ± 36 nM; on IMP-1 beta-lactamase, 734 ± 106 nM.

As to `O=S(=O)(/C=C/c1cccc(C(F)(F)F)c1)Nc1cccc(-c2nnn(Cc3cccc(Cl)c3)n2)c1` [ef-rs-05-076], the figures for the Ki (in data set [2]; on AmpC β-lactamase) were 176 nM and 80 nM, respectively.

`COc1ccc(NS(=O)(=O)/C=C/c2cccc([N+](=O)[O-])c2)cc1OCc1cccc(Cl)c1` [ef-rs-05-080] had a solubility in “Solubility” of 3 µM (≈ 1.42 µg/mL). The compound also displayed a half-life in [3] of 37 ± 4 min. The Kd at HSA was 4580 nM and 5350 nM. For the same compound, the IC50 at AmpC β-lactamase came to 563 ± 63 nM; against IMP-1 beta-lactamase, 1100 ± 40 nM.

For the compound `O=S(=O)(/C=C/c1cccc(Cl)c1)Nc1cccc(OCc2cccc(Cl)c2)c1` [ef-rs-08-048], the solubility in the data set “Solubility” was 19 µM (≈ 8.25 µg/mL). The half-life in data set [3] came out at 120 ± 10 min. Further, the Kd on HSA is 113 nM and 252 nM. Besides, the “MIC (MRSA) [4 μg/mL]” value in data set [4] (setting [6]) is listed as 2. The “reduction of Oxacillin MIC” value in data set [4] (compound at 4 μg/mL) and in [5] (compound at 4 μg/mL) was 8 fold throughout. For the same compound, the “MIC (VRSA) [4 μg/ml]” value in data set [5] (setting [6]) worked out at 0.25. The values for the IC50 on AmpC β-lactamase and on IMP-1 beta-lactamase were 477 ± 59 nM and 487 ± 90 nM, respectively.

For the compound `O=S(=O)(/C=C/c1cccc(Cl)c1)N(Cc1cccc(Cl)c1)c1cccc(OCc2cccc(Cl)c2)c1` [ef-rs-08-052, (E)-N-(3-chlorobenzyl)-N-(3-(3-chlorobenzyloxy)phenyl)-2-(3-chlorophenyl)ethenesulfonamide], the figures for the Ki on AmpC β-lactamase and on IMP-1 beta-lactamase were 67 nM and 203 ± 51 nM, respectively.

For `O=S(=O)(/C=C/c1cccc(Cl)c1)Nc1cccc(OCc2cccc(F)c2)c1` [ef-rs-09-012], the figures for the IC50 (in data set [1]; on AmpC β-lactamase; on IMP-1 beta-lactamase) were 523 ± 84 nM, 846 ± 100 nM and 157 ± 12 nM, respectively. Besides, the concentration in solution in “Solubility” (solubility) was 7 µM (≈ 2.93 µg/mL). For the same compound, the half-life in data set [3] was found to be 81 ± 14 min. The Kd on HSA was 49 nM and 52 nM.

As to `COc1ccc(NS(=O)(=O)/C=C/c2cccc(Cl)c2)cc1O` [ef-rs-09-014], the values for the 50% inhibitory concentration (IC50) (in data set [1]; on AmpC β-lactamase; at IMP-1 beta-lactamase) were 2470 ± 50 nM, 3750 ± 500 nM and 4690 ± 270 nM, respectively. Besides, the concentration in solution in “Solubility” (solubility) came to 450 µM (≈ 153 µg/mL). Besides, the half-life in [3] was less than 5 min. Besides, binding at HSA was characterised by a dissociation constant (Kd) of 2510 ± 1780 nM.

Consider `COc1cccc(COc2cc(NS(=O)(=O)/C=C/c3cccc(Cl)c3)ccc2OC)c1` [ef-rs-09-018], for which the IC50 in [1] is 702 ± 91 nM; on AmpC β-lactamase, 1070 ± 360 nM; on IMP-1 beta-lactamase, 256 ± 33 nM. This compound also gave a solubility in “Solubility” of 50 µM (≈ 23 µg/mL). In data set [3], this compound displayed a half-life of 22 ± 6 min. The compound further returned a Kd on HSA of 348 ± 53 nM.

For the compound `COc1cc(NS(=O)(=O)/C=C/c2cccc(Cl)c2)ccc1OCc1cccc(Cl)c1` [ef-rs-09-029], the IC50 in data set [1] was 406 ± 77 nM; on AmpC β-lactamase it was 706 ± 66 nM; at IMP-1 beta-lactamase, 171 ± 20 nM. In addition, the solubility in “Solubility” was determined as 8 µM (≈ 3.71 µg/mL). The same compound displayed a Kd on HSA of 484 ± 76 nM.

Turning to `O=S(=O)(/C=C/c1cccc(Cl)c1)Nc1ccc(OCc2cccc(Cl)c2)cc1` [ef-rs-09-030], the IC50 in [1] worked out at 85 ± 21 nM; against AmpC β-lactamase, 553 ± 58 nM; against IMP-1 beta-lactamase, 63 ± 8 nM. For the same compound, the solubility in the data set “Solubility” is 6 µM (≈ 2.61 µg/mL). For the same compound, the Kd at HSA was 301 ± 65 nM.

The values are drawn from patent US9730913B2 (THE JOHNS HOPKINS UNIVERSITY, priority 2011, dated 2017).
